Data on three substances can be found in patent US9606114B2, “Multivalent chelators containing a scaffold structure for modifying and organizing of target molecules” (JOHANN WOLFGANG GOETHE-UNIVERSITAT FRANKFURT AM MAIN, priority 2004, dated 2017).

Data set [1] concerns the target T1, ifnar2-H10 (Homo sapiens, UniProt P48551).
T1 construct: the extracellular domain of ifnar2 with a C-terminal deca-histidine-tag (ifnar2-H10)
T1 sequence (P48551 with tags, fused parts or gaps): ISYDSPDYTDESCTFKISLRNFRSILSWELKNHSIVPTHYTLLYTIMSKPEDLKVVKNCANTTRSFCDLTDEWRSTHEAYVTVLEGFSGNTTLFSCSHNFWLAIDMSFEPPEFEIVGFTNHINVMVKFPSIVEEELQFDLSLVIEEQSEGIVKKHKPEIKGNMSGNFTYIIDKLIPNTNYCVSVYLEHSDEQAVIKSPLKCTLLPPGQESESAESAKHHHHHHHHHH
The data set is described as follows: Fluorescence quantum yield of MCH-fluorophore conjugate after Ni(II) loading and protein binding. The data set is classed as physicochemical. As to the method: (§1) For a non-covalent fluorescence labeling of histidine-tagged proteins in solution conjugates of tris-NTA with three different fluorophores were synthesized: Oregon Green 488, ATTO 565, FEW-S0387 (FIG. 17).
(§2) After loading with Ni(II)-ions ifnar2-H10 was added to these conjugates and the excess conjugate was separated through gel filtration.
(§3) The different states of the MCH-fluorophore-conjugate could be followed by fluorescence quantum yield. (FIG. 18B). After loading of the chelator-groups with Ni(II)-ions a marked reduction of the fluorescence to about 50% was observed, and after binding to the protein to about 40%.

In data set [2] the test system is ifnar2-H10. The data set is described as above. The conditions noted are these: relative to unloaded conjugate. It counts as physicochemical. Here is the method:
as §1, §2, §3

Data set [3] addresses T1, ifnar2-H10. Put plainly: Immobilization of histidine-tagged protein on chelator-modified surface, detected by RIfS. It counts as binding. The conditions noted are these: immobilized on tris-NTA modified surface. The text has this: The interaction of histidine-tagged proteins with the surfaces as produced in example 1 was characterized in detail by means of reflectometric interference spectroscopy (RIfS). Using this method, the binding of proteins to surfaces can be quantified in real time, as described in Piehler and Schreiber 2001 (Piehler J, Schreiber G. 2001. Fast transient cytokine-receptor interactions monitored in real time by reflectometric interference spectroscopy. Anal. Biochem. 289(2):173-186.)
The immobilization of the extracellular domain of ifnar2 with a C-terminal deca-histidine-tag (ifnar2-H10) to a tris-NTA modified surface (FIG. 7A) is shown in FIG. 7B. Whereas no binding was detectable before loading of the chelator coupled to the surface with Ni(II)-ions, thereafter an overall binding of about 1.5 ng/mm^2 protein was observed that also maintained stably immobilized during rinsing. Nevertheless, this protein could be removed quantitatively with 200 mM imidazole as competitor.
The functionality of the immobilized protein was examined through the binding of the ligand interferon α2 (IFNα2) (FIG. 8).

Data set [4] has as its target T1, ifnar2-H10. The data set is described as follows: Lateral diffusion of protein anchored via bis-NTA lipid to solid-supported lipid double layer (FRAP). The conditions noted are these: membrane-anchored via bis-NTA lipid in stearoyl-oleoyl-phosphatidylcholine double layer. The text has this: For an attachment of proteins to lipid membranes, a lipid-analogue conjugate of bis-NTA was synthesized that is shown in FIG. 15A.
This lipid was incorporated into unilaminar vesicles of stearoyl-oleoyl-phosphatidylcholine that spontaneously form a fluid solid-supported lipid-double layer on glass surfaces (FIG. 15B). ifnar2-H10 could be specifically anchored at these membranes, whereby the binding activity was completely preserved (FIG. 15B). The lateral diffusion of the membrane-anchored ifnar2-H10 was analyzed through fluorescence-bleaching (fluorescence recovery after photobleaching, FRAP) (FIG. 16). Thereby, a diffusion constant of 1 μm^2/s was determined.

For ATTO 565-Tris-NTA, the “reduction of fluorescence compared with Oregon Green conjugate” value on ifnar2-H10 [1] (Ni(II) loading and protein binding) was “even more pronounced”.

For OG 488-Tris-NTA [tris-NTA-Oregon Green], the “fluorescence after binding to the protein” value on ifnar2-H10 [1] (Ni(II)-loaded conjugate bound to ifnar2-H10) was “about 40%”. The “fluorescence after loading of the chelator-groups with Ni(II)-ions” value with ifnar2-H10 [2] was “about 50%”.

Turning to “ifnar2-H10: extracellular domain of ifnar2 (type I interferon-receptor 2) with a C-terminal deca-histidine-tag”, the “immobilized ifnar2-H10 active (binding of ligand IFNα2)” value in the data set with ifnar2-H10 [3] is listed as “more than 90%”. Further, the diffusion constant in the data set with ifnar2-H10 [4] is 1 μm^2/s.
